In patent publication US20030095958A1, “Inhibitors of bace” (priority 2001, published 2003):

The compounds below were run against BACE (Homo sapiens, UniProt P56817) (assay: Ki Determination for the Inhibition of BACE (FS-1 peptide fluorescence cleavage assay)). Details: apparent Ki; 50 nM BACE, 10 μM FS-1 substrate, 0.1M sodium acetate pH 4.5.
Type: biochemical
Outline: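 Human BACE (50 nM) was preincubated 15 min at room temperature with compound (2% DMSO) in 0.1 M sodium acetate pH 4.5, then 10 μM FS-1 peptide was added. Cleavage was followed by fluorescence (ex 355/em 495 nm), and apparent Ki came from fitting to the integrated competitive tight-binding inhibition equation.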

Chain of BACE (P56817 46-501): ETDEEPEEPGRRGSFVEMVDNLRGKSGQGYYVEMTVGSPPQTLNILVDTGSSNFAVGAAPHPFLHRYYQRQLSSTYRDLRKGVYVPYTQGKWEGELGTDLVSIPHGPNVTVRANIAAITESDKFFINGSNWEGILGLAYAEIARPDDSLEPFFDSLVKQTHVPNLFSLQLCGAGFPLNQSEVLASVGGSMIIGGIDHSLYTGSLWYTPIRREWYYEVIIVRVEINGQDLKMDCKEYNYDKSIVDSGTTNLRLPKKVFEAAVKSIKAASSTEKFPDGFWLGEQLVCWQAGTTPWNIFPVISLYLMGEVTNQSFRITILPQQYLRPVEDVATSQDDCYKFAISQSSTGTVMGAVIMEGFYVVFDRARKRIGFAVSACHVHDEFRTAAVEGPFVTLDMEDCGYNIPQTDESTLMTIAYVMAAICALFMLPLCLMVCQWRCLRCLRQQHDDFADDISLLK

`FC(F)(F)c1ccccc1OCc1cc(C2=CCNCC2)ccc1C1=CCNCC1` [Compound 371, 4-[4-(1,2,3,6-Tetrahydro-pyridin-4-yl)-2-(2-trifluoromethyl-phenoxymethyl)-phenyl]-1,2,5,6-tetrahydro-pyridine] and `COC(=O)c1cc(C2=CCNCC2)c(COc2ccccc2C(F)(F)F)cc1Br` [Compound 381, 2-Bromo-5-(1,2,3,6-tetrahydro-pyridin-4-yl)-4-(2-trifluoromethyl-phenoxymethyl)-benzoic acid methyl ester] fall in the same range of Ki: 3 to 30 µM for the first, 3 to 30 µM for the second.

`FC(F)(F)c1ccccc1OCc1cccc(COc2ccccc2C(F)(F)F)c1C1=CCNCC1` [Compound 304, 4-[2,6-Bis-(2-trifluoromethyl-phenoxymethyl)-phenyl]-1,2,3,6-tetrahydro-pyridine] and `FC(F)(F)c1ccccc1OCc1cc(-c2ccsc2)c(COc2ccccc2C(F)(F)F)cc1C1=CCNCC1` [Compound 342, 4-[4-Thiophen-3-yl-2,5-bis-(2-trifluoromethyl-phenoxymethyl)-phenyl]-1,2,3,6-tetrahydro-pyridine] cannot be ordered by Ki: under 3 µM for the first, under 3 µM for the second.

Compared with `O=C(Nc1cc(C(F)(F)F)c(Cl)cc1N1CCNCC1)c1cccc2ccccc12` [Compound 167, Naphthalene-1-carboxylic acid (4-chloro-2-piperazin-1-yl-5-trifluoromethyl-phenyl)-amide], `O=C(Nc1cc(-c2cccc(Cl)c2)ccc1N1CCNCC1)c1cccc2ccccc12` [Compound 123, Naphthalene-1-carboxylic acid (3′-chloro-4-piperazin-1-yl-biphenyl-3-yl)-amide] is lower in Ki: over 30 µM for the first, 3 to 30 µM for the second. The second binds more tightly here.

`FC(F)Oc1ccc(COc2ccc3c(c2)c2c(n3Cc3cccc4ccccc34)CNCC2)cc1` [Compound 512, 6-(4-Difluoromethoxy-benzyloxy)-9-naphthalen-1-ylmethyl-2,3,4,9-tetrahydro-1H-b-carboline] and `Ic1ccccc1COc1ccc2c(c1)c1c(n2Cc2cccc3ccccc23)CNCC1` [Compound 520, 6-(2-Iodo-benzyloxy)-9-naphthalen-1-ylmethyl-2,3,4,9-tetrahydro-1H-b-carboline] cannot be ordered by Ki: under 3 µM for the first, under 3 µM for the second.

First: FC(F)(F)c1ccccc1OCc1cc(-c2ccc(Cl)c(Cl)c2)c(COc2ccccc2C(F)(F)F)cc1C1=CCNCC1 [Compound 335, 4-[3′,4′-Dichloro-2,5-bis-(2-trifluoromethyl-phenoxymethyl)-biphenyl-4-yl]-1,2,3,6-tetrahydro-pyridine]
Second: O=[N+]([O-])c1ccc(-c2cc(COc3ccccc3C(F)(F)F)c(C3=CCNCC3)cc2COc2ccccc2C(F)(F)F)cc1 [Compound 354, 4-[4′-Nitro-2,5-bis-(2-trifluoromethyl-phenoxymethyl)-biphenyl-4-yl]-1,2,3,6-tetrahydro-pyridine]
The Ki of the first is higher: 3 to 30 µM for the first, under 3 µM for the second. The second binds more tightly here.

First: O=C(Nc1cc(-c2ccc(C(F)(F)F)cc2)c(COc2ccccc2C(F)(F)F)cc1N1CCNCC1)c1nccc2ccccc12 [Compound 185, Isoquinoline-1-carboxylic acid [4-piperazin-1-yl-4′-trifluoromethyl-6-(2-trifluoromethyl-phenoxymethyl)-biphenyl-3-yl]-amide]
Second: FC(F)(F)c1ccccc1OCc1cc(-c2cccc3ccccc23)c(COc2ccccc2C(F)(F)F)cc1C1=CCNCC1 [Compound 301, 4-[4-Naphthalen-1-yl-2,5-bis-(2-trifluoromethyl-phenoxymethyl)-phenyl]-1,2,3,6-tetrahydro-pyridine]
The Ki of the first is higher: 3 to 30 µM for the first, under 3 µM for the second. The second binds more tightly here.

First: O=C(OCc1ccccc1-c1ccc(C2=CCNCC2)c(COc2ccccc2C(F)(F)F)c1)c1cccnc1Cl [Compound 384, 2-Chloro-nicotinic acid 4′-(1,2,3,6-tetrahydro-pyridin-4-yl)-3′-(2-trifluoromethyl-phenoxymethyl)-biphenyl-2-ylmethyl ester]
Second: O=C(OCc1cc(C2=CCNCC2)c(COc2ccccc2C(F)(F)F)cc1-c1ccoc1)c1ccccn1 [Compound 389, Pyridine-2-carboxylic acid 2-furan-3-yl-5-(1,2,3,6-tetrahydro-pyridin-4-yl)-4-(2-trifluoromethyl-phenoxymethyl)-benzyl ester]
The Ki of the first is lower: under 3 µM for the first, 3 to 30 µM for the second.

First: O=C(Nc1cc(C(F)(F)F)ccc1N1CCNCC1)Oc1ccc2ccccc2c1 [Compound 151, (2-Piperazin-1-yl-5-trifluoromethyl-phenyl)-carbamic acid naphthalen-2-yl ester]
Second: O=S(=O)(Nc1cc(C(F)(F)F)ccc1N1CCNCC1)c1ccc2ccccc2c1 [Compound 136, Naphthalene-2-sulfonic acid (2-piperazin-1-yl-5-trifluoromethyl-phenyl)-amide]
The Ki of the first is lower: 3 to 30 µM for the first, over 30 µM for the second. The first binds more tightly here.

`O=C(c1cccc2ccccc12)n1c2c(c3cc(OCc4ccccc4C(F)(F)F)ccc31)CCNC2` [Compound 504, Naphthalen-1-yl-[6-(2-trifluoromethyl-benzyloxy)-1,2,3,4-tetrahydro-b-carbolin-9-yl]-methanone] and `O=C(c1cccc2ccccc12)n1c2c(c3cc(OCc4cc(C(F)(F)F)ccc4Cl)ccc31)CCNC2` [Compound 510, [6-(2-Chloro-5-trifluoromethyl-benzyloxy)-1,2,3,4-tetrahydro-b-carbolin-9-yl]-naphthalen-1-yl-methanone] cannot be ordered by Ki: under 3 µM for the first, under 3 µM for the second.

Compared with `FC(F)(F)c1cccc(COc2ccc3c(c2)c2c(n3Cc3ccc4ccccc4c3)CNCC2)c1` [Compound 537, 9-Naphthalen-2-ylmethyl-6-(3-trifluoromethyl-benzyloxy)-2,3,4,9-tetrahydro-1H-b-carboline], `c1ccc(COc2ccc3c(c2)c2c(n3Cc3ccc4ccccc4c3)CNCC2)cc1` [Compound 305, 6-Benzyloxy-9-naphthalen-2-ylmethyl-2,3,4,9-tetrahydro-1H-b-carboline] is higher in Ki: under 3 µM for the first, 3 to 30 µM for the second. The first binds more tightly here.

First: O=C(OCc1ccc(COc2ccccc2C(F)(F)F)cc1C1=CCNCC1)c1ccccc1C(F)(F)F [Compound 314, 2-Trifluoromethyl-benzoic acid 2-(1,2,3,6-tetrahydro-pyridin-4-yl)-4-(2-trifluoromethyl-phenoxymethyl)-benzyl ester]
Second: O=C(OCc1ccc(COc2ccccc2C(F)(F)F)cc1C1=CCNCC1)Oc1ccc2ccccc2c1 [Compound 319, Carbonic acid naphthalen-2-yl ester 2-(1,2,3,6-tetrahydro-pyridin-4-yl)-4-(2-trifluoromethyl-phenoxymethyl)-benzyl ester]
The Ki of the first is higher: 3 to 30 µM for the first, under 3 µM for the second.

`Nc1cccc2c(NC(=O)c3ccc(COc4ccccc4C(F)(F)F)cc3C3=CCNCC3)cccc12` [Compound 310, N-(5-Amino-naphthalen-1-yl)-2-(1,2,3,6-tetrahydro-pyridin-4-yl)-4-(2-trifluoromethyl-phenoxymethyl)-benzamide] and `O=C(OCc1ccc(COc2ccccc2C(F)(F)F)cc1C1=CCNCC1)c1ccc2c(c1)OCO2` [Compound 316, Benzo[1,3]dioxole-5-carboxylic acid 2-(1,2,3,6-tetrahydro-pyridin-4-yl)-4-(2-trifluoromethyl-phenoxymethyl)-benzyl ester] fall in the same range of Ki: 3 to 30 µM for the first, 3 to 30 µM for the second.

`O=C(Nc1ccc2ccccc2c1)C1CNCCC1c1ccc(-c2ccccc2)cc1` (centres unmarked) [Compound 402] and `C1=C(c2ccc(-c3ccccc3)cc2)C(COc2ccc3ccccc3c2)CNC1` (centres unmarked) [Compound 302, 4-Biphenyl-4-yl-3-(naphthalen-2-yloxymethyl)-1,2,3,6-tetrahydro-pyridine] cannot be ordered by Ki: under 3 µM for the first, under 3 µM for the second.

`CC(O)c1ccccc1-c1cc(COc2ccccc2C(F)(F)F)c(C2=CCNCC2)cc1COc1ccccc1C(F)(F)F` (centres unmarked) [Compound 355, 1-[4′-(1,2,3,6-Tetrahydro-pyridin-4-yl)-2′,5′-bis-(2-trifluoromethyl-phenoxymethyl)-biphenyl-2-yl]-ethanol] and `CC(=O)c1ccccc1-c1cc(COc2ccccc2C(F)(F)F)c(C2=CCNCC2)cc1COc1ccccc1C(F)(F)F` [Compound 350, 1-[4′-(1,2,3,6-Tetrahydro-pyridin-4-yl)-2′,5′-bis-(2-trifluoromethyl-phenoxymethyl)-biphenyl-2-yl]-ethanone] cannot be ordered by Ki: under 3 µM for the first, under 3 µM for the second.

Compared with `O=C(Nc1cc(C(F)(F)F)ccc1N1CCNCC1)c1ccc(F)c2ccccc12` [Compound 101, 4-Fluoro-naphthalene-1-carboxylic acid (2-piperazin-1-yl-5-trifluoromethyl-phenyl)-amide], `O=C(Nc1cc(C(F)(F)F)cc(NC(=O)c2cccc3ccccc23)c1N1CCNCC1)c1cccc2ccccc12` [Compound 127, 4-{2,6-Bis-[(naphthalene-1-carbonyl)-amino]-4-trifluoromethyl-phenyl}-piperazine] is lower in Ki: over 30 µM for the first, 3 to 30 µM for the second.

First: COC(=O)C1CN(c2ccc(-c3ccc(C(F)(F)F)cc3)cc2NCc2ccc3ccccc3c2)CCN1 (centres unmarked) [Compound 192, 4-{3-[(Naphthalen-2-ylmethyl)-amino]-4′-trifluoromethyl-biphenyl-4-yl}-piperazine-2-carboxylic acid methyl ester]
Second: O=C(NCC1CNCCC1c1ccc(COc2ccccc2C(F)(F)F)cc1)c1cccc2ccccc12 (centres unmarked) [Compound 221, Naphthalene-1-carboxylic acid {4-[4-(2-trifluoromethyl-phenoxymethyl)-phenyl]-piperidin-3-ylmethyl}-amide]
The Ki of the first is lower: under 3 µM for the first, 3 to 30 µM for the second.

`FC(F)(F)c1ccccc1COc1ccc2c(c1)c1c(n2Cc2cccc3ccccc23)CNCC1` [Compound 505, 9-Naphthalen-1-ylmethyl-6-(2-trifluoromethyl-benzyloxy)-2,3,4,9-tetrahydro-1H-b-carboline] and `COc1cc(COc2ccc3c(c2)c2c(n3Cc3cccc4ccccc34)CNCC2)cc(OC)c1` [Compound 525, 6-(3,5-Dimethoxy-benzyloxy)-9-naphthalen-1-ylmethyl-2,3,4,9-tetrahydro-1H-b-carboline] cannot be ordered by Ki: under 3 µM for the first, under 3 µM for the second.

Work on `O=C(c1ccc2ccccc2c1)n1c2c(c3cc(OCc4ccccc4OC(F)F)ccc31)CCNC2` [Compound 530, [6-(2-Difluoromethoxy-benzyloxy)-1,2,3,4-tetrahydro-b-carbolin-9-yl]-naphthalen-2-yl-methanone] yielded a Ki of under 3 µM.
